Reference: ChEMBL document CHEMBL1133769, “Novel inhibitors of DNA gyrase: 3D structure based biased needle screening, hit validation by biophysical methods, and 3D guided optimization. A promising alternative to random screening” (J Med Chem, 2000)

Target: DNA gyrase (Staphylococcus aureus) (UniProt P0A0K8+P20831)
Sequence (P0A0K8 2-644 limits assumed): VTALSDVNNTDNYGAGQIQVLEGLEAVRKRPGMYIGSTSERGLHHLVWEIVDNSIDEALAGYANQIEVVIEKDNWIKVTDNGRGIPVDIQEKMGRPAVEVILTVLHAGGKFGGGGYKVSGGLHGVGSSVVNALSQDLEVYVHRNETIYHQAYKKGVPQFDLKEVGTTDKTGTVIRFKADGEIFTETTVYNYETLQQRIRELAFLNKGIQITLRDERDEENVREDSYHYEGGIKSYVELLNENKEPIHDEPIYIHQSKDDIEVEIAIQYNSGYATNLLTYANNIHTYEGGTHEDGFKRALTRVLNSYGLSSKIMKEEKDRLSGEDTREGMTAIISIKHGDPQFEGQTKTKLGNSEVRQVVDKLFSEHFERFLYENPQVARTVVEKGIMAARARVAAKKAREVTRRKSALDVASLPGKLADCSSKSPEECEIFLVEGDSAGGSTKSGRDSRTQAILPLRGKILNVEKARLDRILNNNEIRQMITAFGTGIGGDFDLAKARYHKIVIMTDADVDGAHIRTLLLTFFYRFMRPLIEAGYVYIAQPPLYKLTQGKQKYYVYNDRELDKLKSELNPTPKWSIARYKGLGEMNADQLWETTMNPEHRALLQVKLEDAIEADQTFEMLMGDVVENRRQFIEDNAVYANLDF
Sequence (P20831 whole entry partner): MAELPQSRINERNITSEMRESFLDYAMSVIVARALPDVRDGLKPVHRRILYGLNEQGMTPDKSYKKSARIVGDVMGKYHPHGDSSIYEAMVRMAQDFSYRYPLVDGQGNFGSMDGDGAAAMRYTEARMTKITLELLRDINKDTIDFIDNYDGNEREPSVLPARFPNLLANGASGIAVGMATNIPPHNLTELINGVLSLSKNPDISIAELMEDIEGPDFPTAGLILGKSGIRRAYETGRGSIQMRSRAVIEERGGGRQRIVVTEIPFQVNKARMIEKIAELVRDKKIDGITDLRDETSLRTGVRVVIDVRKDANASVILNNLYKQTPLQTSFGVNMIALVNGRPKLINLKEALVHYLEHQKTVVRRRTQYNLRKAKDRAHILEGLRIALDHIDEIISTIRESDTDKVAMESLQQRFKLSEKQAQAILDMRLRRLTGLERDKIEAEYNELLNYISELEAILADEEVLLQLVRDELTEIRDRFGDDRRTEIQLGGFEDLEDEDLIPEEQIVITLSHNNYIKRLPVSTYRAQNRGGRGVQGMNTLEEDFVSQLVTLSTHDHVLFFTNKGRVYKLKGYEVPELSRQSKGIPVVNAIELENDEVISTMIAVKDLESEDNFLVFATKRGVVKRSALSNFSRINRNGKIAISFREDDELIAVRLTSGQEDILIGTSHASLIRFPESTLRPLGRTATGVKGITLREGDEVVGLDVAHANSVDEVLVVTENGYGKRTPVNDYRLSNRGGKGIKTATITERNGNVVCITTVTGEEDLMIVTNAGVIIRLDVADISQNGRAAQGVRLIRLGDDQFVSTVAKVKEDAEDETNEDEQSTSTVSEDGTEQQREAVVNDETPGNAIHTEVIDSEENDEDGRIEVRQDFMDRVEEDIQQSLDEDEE
Description: Maximal noneffective concentration for inhibition of DNA gyrase using supercoiling assay.

Row | Structure (SMILES) | MNEC [µg/mL]
1 | Cc1csc(NS(=O)(=O)c2ccc(F)cc2F)c1C(N)=O | 10
2 | Cc1cc(=O)oc2cc(SCc3n[nH]c4ccccc34)ccc12 | 8
3 | Cc1cc(=O)oc2cc(SCc3n[nH]c4cccc(OCc5ccccc5)c34)ccc12 | 0.25
4 | Oc1ccc(Cl)cc1CNc1ccc(Cl)cc1 | 5
5 | OC(CCCCl)c1cc2ccccc2[nH]1 (stereo not given) | 16
6 | Nc1ncccn1 | > 250
7 | CSc1nc(N)nc(SCCN2CCOCC2)n1 | 31
8 | Nc1ncncn1 | > 250
9 | Nc1ccccn1 | > 250
10 | Cc1[nH]c2ncnc(Cl)c2c1C | 31
11 | NC(=O)Oc1cc([N+](=O)[O-])ccc1CSCc1ccc(Cl)c(Cl)c1 | 31
12 | O=[N+]([O-])c1ccc2[nH]nc(-c3ccccc3)c2c1 | 63
13 | c1ccc(-c2[nH]nc3ccccc23)cc1 | 8
14 | N#Cc1cnc(S)nc1N | 16
15 | Cc1c(O)cc(O)c2c1C(=O)OC[C@H](NC(=O)[C@@H]1[C@H](O)CCN1C(=O)[C@@H](N)CO)C(=O)N[C@H](C(=O)N[C@@H](C)C(=O)O)CSC2 | 0.05
16 | Nc1ccncn1 | > 250
17 | Cc1cc(=O)oc2cc(SCc3n[nH]c4cccc(OCc5ccc(C(C)(C)C)cc5)c34)ccc12 | 0.03

Tested on: not listed separately
Assay: Dissociation constant determined by heteronuclear 1H/15N correlation NMR spectroscopy
Type: physicochemical

Row | Structure (SMILES) | Kd [mM]
18 | Nc1ncccn1 | 60
19 | Nc1ncncn1 | 60

Tested on: Nucleic Acid
Assay: Maximal noneffective concentration (MNEC) for inhibition of DNA gyrase
Type: nucleic-acid assay

Row | Structure (SMILES) | MNEC [µg/mL]
20 | c1ccc2[nH]ncc2c1 | > 250
